Experimental findings from patent publication US9018214B2, “Bicyclic heterocycle compounds and their uses in therapy” (Astex Therapeutics Limited, priority 2011, dated 2015) are described below.

As a reminder, the EC50 is the concentration at which the effect is half-maximal. What is called IC50 is the point on the concentration scale where inhibition reaches its midpoint.

The structures appear in SMILES notation. Counter-ions that a name gives are not always drawn. Like-named read-outs stand apart in the source and are kept apart here.

Assay [1] relates to MDA-MB-231 (human breast carcinoma). In words: Anti-proliferative activity, Alamar Blue assay, MDA-MB-231. The format is cell-based. To be noted: MDA-MB-231, 72 h, read-out: EC50, inhibition of cell growth. (Alamar Blue is a resazurin reagent that responds to reducing activity.)
The test system of assay [2] is EVSA-T (human breast carcinoma). Description: Anti-proliferative activity, Alamar Blue assay, EVSA-T. It is filed as cell-based.
The target of assay [3] is BIR3 domain of human cIAP-1 (residues 267-363) (Homo sapiens (Human), UniProt Q13490). Description: cIAP-1 in vitro competitive displacement binding assay (fluorescence polarization; Probe A AVPIK(5&6FAM)-amide or Probe B AbuRPFK(5&6FAM)-amide). For orientation: Fluorescence polarisation rises when a labelled molecule tumbles more slowly, as on binding a larger partner.
The target of assay [4] is BIR3 domain of human XIAP (residues 252-350) (Homo sapiens (Human), UniProt P98170). Description: XIAP in vitro competitive displacement binding assay (fluorescence polarization). To be noted: for IC50: read-out: IC50 or PI Xiap: IC50.
The mark [5] stands for this setting: Homo sapiens, EVSA-T, 72 h, read-out: EVSA-T prolif (EC50).
[6] abbreviates: 3 h, read-out: IC50 or PI cIAP1: PI.
Setting [7] is: 1 h, read-out: IC50 or PI Xiap: PI.
The mark [8] stands for this setting: Homo sapiens, EVSA-T, 72 hours, Alamar Blue, read-out: EVSA-T prolif (EC50).
The mark [9] stands for this setting: Probe B AbuRPFK(5&6FAM)-amide, read-out: IC50 or PI cIAP1: IC50.
Where [10] appears, read: 3 h, Probe B, @ 0.012 μM, read-out: IC50 or PI cIAP1: PI.

For the compound `COC[C@H]1CN[C@H](C)CN1CC(=O)N1CC(C)(C)c2cnc(Cc3ccccc3)cc21` [Example 63, 1-(6-Benzyl-3,3-dimethyl-2,3-dihydro-pyrrolo[3,2-c]pyridin-1-yl)-2-((2R,5R)-2-methoxy-methyl-5-methyl-piperazin-1-yl)-ethanone hydrochloride salt], the EC50 was < 10 µM in assay [1] and 0.1 µM in assay [2] (setting [5]).

As for `C[C@@H]1CN(CC(=O)N2CC(C)(C)c3ncc(Cc4ccc(F)cc4F)cc32)[C@@H](CN2CCOC[C@H]2C)CN1` [Example 264, 1-[6-(2,4-Difluoro-benzyl)-3,3-dimethyl-2,3-dihydro-pyrrolo[3,2-b]pyridin-1-yl]-2-[(2R,5R)-5-methyl-2-((R)-3-methyl-morpholin-4-ylmethyl)-piperazin-1-yl]-ethanone, dihydrochloride], the inhibition at […] in assay [3] (setting [6]) worked out at 98%. For the same compound, the inhibition at 0.04 µM in assay [4] (setting [7]) was 68%. Besides, in assay [2] (setting [8]), the EC50 amounted to 0.001 µM.

As to `COC[C@H]1CN[C@H](C)CN1CC(=O)N1C[C@](C)(c2cc(C)no2)c2ccc(Cc3ccccc3)cc21` [Example 174, 1-[(3R)-6-Benzyl-3-methyl-3-(3-methyl-1,2-oxazol-5-yl)-2,3-dihydro-1H-indol-1-yl]-2-[(2R,5R)-2-(methoxymethyl)-5-methylpiperazin-1-yl]ethan-1-one hydrochloride], the values for the concentration for half-maximal inhibition (IC50) in assay [3], in assay [3] (setting [9]) and in assay [4] were < 1 µM, 0.19 µM and 0.76 µM, respectively. The EC50 in assay [2] (setting [8]) came to 2.5 µM.

Turning to `C[C@@H]1CN(CC(=O)N2CC(C)(C)c3ncc(Cc4ccc(F)cc4F)cc32)[C@@H](CN2CC[C@@H](F)C2)CN1` [Example 205, 1-{6-[(2,4-Difluorophenyl)methyl]-3,3-dimethyl-1H,2H,3H-pyrrolo[3,2-b]pyridin-1-yl}-2-[(2R,5R)-2-{[(3R)-3-fluoropyrrolidin-1-yl]methyl]-5-methylpiperazin-1-yl]ethan-1-one hydrochloride], the inhibition at […] in assay [3] (setting [10]) was 97%. The IC50 in assay [4] is 0.1 µM. In addition, the 50% effective concentration (EC50) in assay [2] (setting [8]) turned out to be 0.019 µM.

In the case of `C[C@@H]1CN(CC(=O)N2CC(C)(C)c3cnc(Cc4ccccc4)cc32)[C@@H](C(=O)N2CCOCC2)CN1` [Example 101, 1-{6-Benzyl-3,3-dimethyl-1H,2H,3H-pyrrolo[3,2-c]pyridin-1-yl}-2-[(2R,5R)-5-methyl-2-[(morpholin-4-yl)carbonyl]piperazin-1-yl]ethan-1-one, hydrochloride salt], the inhibition at 0.01 µM in assay [3] (3 h, Probe B, @ 0.01 μM, read-out: IC50 or PI cIAP1: PI) is 62%. Also, the IC50 in assay [4] was determined as 0.072 µM. Further, the concentration giving a half-maximal response (EC50) in assay [2] (setting [8]) was 0.14 µM.

With `CC[C@@H](C(=O)N1CC(C)(C)c2ccc(C#N)cc21)N1CCN[C@H](C)C1` [Example 266, 3,3-Dimethyl-1-[(2S)-2-[(3R)-3-methylpiperazin-1-yl]butanoyl]-2,3-dihydro-1H-indole-6-carbonitrile, hydrochloride salt], the inhibition at 50 µM in assay [3] (setting [6]) stood at 24%. In addition, the inhibition at 150 µM in assay [4] (setting [7]) was -6%. In addition, the inhibition at 10 µM in assay [2] (Homo sapiens, EVSA-T, at 10 μM, read-out: EVSA-T prolif: % inhibition) was -20%.

Turning to `Cc1nc(C)n(C[C@H]2CN[C@H](C)CN2CC(=O)N2CC(C)(C)c3cnc(Cc4ccc(F)cc4F)cc32)n1` [Example 206, 1-{6-[(2,4-Difluorophenyl)methyl]-3,3-dimethyl-1H,2H,3H-pyrrolo[3,2-c]pyridin-1-yl}-2-[(2R,5R)-2-[(dimethyl-1H-1,2,4-triazol-1-yl)methyl]-5-methylpiperazin-1-yl]ethan-1-one hydrochloride], in assay [3] (setting [10]), the inhibition at […] is 97%. The IC50 in assay [4] came out at 0.079 µM. In addition, the concentration giving a half-maximal response (EC50) in assay [2] (setting [8]) stood at 0.0017 µM.

Regarding `C[C@@H]1CN(CC(=O)N2CC(C)(C)c3cnc(Cc4ccc(F)cc4F)cc32)[C@@H](Cn2ccncc2=O)CN1` [Example 195, 1-{[(2R,5R)-1-(2-{6-[(2,4-Difluorophenyl)methyl]-3,3-dimethyl-1H,2H,3H-pyrrolo[3,2-c]pyridin-1-yl}-2-oxoethyl)-5-methylpiperazin-2-yl]methyl}-1,2-dihydropyrazin-2-one dihydrochloride], the inhibition at […] in assay [3] (setting [6]) came out at 96%. Besides, the IC50 in assay [4] is 0.067 µM. Also, the concentration giving a half-maximal response (EC50) in assay [2] (setting [5]) was 0.036 µM.

On to `CNC(=O)[C@H]1CN[C@H](C)CN1CC(=O)N1CC(C)(C)c2cc(F)c(S(=O)(=O)c3ccccc3)cc21` [Example 56, (2R,5R)-1-[2-(6-Benzenesulfonyl-5-fluoro-3,3-dimethyl-2,3-dihydro-indol-1-yl)-2-oxo-ethyl]-5-methyl-piperazine-2-carboxylic acid methylamide hydrochloride salt], for which the IC50 in assay [3] was < 1 µM; in assay [3] (setting [9]) it was 0.13 µM; in assay [4], 0.11 µM. For the same compound, the EC50 is < 10 µM in assay [2] (Homo sapiens, EVSA-T cell line, 72 hours, Alamar Blue, read-out: EC50, inhibition of cell growth) and 2.3 µM in assay [2] (setting [8]).

Turning to `C[C@@H]1CN(CC(=O)N2CC(C)(C)c3ncc(Cc4ccccc4F)cc32)[C@@H](CN2CCOC[C@H]2C)CN1` [Example 261, 1-[6-(2-Fluoro-benzyl)-3,3-dimethyl-2,3-dihydro-pyrrolo[3,2-b]pyridin-1-yl]-2-[(2R,5R)-5-methyl-2-((R)-3-methyl-morpholin-4-ylmethyl)-piperazin-1-yl]-ethanone dihydrochloride], in assay [3] (setting [6]), the inhibition at […] is 96%. In addition, in assay [4] (setting [7]), the inhibition at 0.04 µM turned out to be 55%. In addition, the concentration giving a half-maximal response (EC50) in assay [2] (setting [8]) was 0.0021 µM.

Turning to `CCCC(F)(F)c1cnc2c(c1)N(C(=O)CN1C[C@@H](C)NC[C@@H]1CN1CCOC[C@H]1C)CC2(C)C` [Example 260, 1-[6-(1,1-Difluoro-butyl)-3,3-dimethyl-2,3-dihydro-pyrrolo[3,2-b]pyridin-1-yl]-2-[(2R,5R)-5-methyl-2-((R)-3-methyl-morpholin-4-ylmethyl)-piperazin-1-yl]-ethanone dihydrochloride], the inhibition at […] in assay [3] (setting [6]) amounted to 90%. Moreover, in assay [4] (setting [7]), the inhibition at 0.04 µM was found to be 73%. In assay [2] (setting [8]), the 50% effective concentration (EC50) was 0.0044 µM.

Regarding `CCCC(F)(F)c1cnc2c(c1)N(C(=O)CN1C[C@@H](C)NC[C@@H]1CN1CC[C@@H](F)C1)CC2(C)C` [Example 223, 1-[6-(1,1-Difluorobutyl)-3,3-dimethyl-1H,2H,3H-pyrrolo[3,2-b]pyridin-1-yl]-2-[(2R,5R)-2-{[(3R)-3-fluoropyrrolidin-1-yl]methyl}-5-methylpiperazin-1-yl]ethan-1-one hydrochloride], the inhibition at […] in assay [3] (setting [10]) came to 62%. Moreover, the IC50 in assay [4] is 0.12 µM. Further, in assay [2] (setting [8]), the concentration for a half-maximal effect (EC50) turned out to be 0.081 µM.

As for `C[C@@H]1CN(CC(=O)N2CC(C)(C)c3cnc(Cc4ccc(F)cc4F)cc32)[C@@H](CN2CCC(=O)C2)CN1` [Example 207, 1-{[(2R,5R)-1-(2-{6-[(2,4-Difluorophenyl)methyl]-3,3-dimethyl-1H,2H,3H-pyrrolo[3,2-c]pyridin-1-yl}-2-oxoethyl)-5-methylpiperazin-2-yl]methyl}pyrrolidin-3-one dihydrochloride], the inhibition at […] in assay [3] (setting [6]) stood at 98%. Further, the IC50 in assay [4] stood at 0.057 µM. In addition, the 50% effective concentration (EC50) in assay [2] (setting [5]) was 0.004 µM.

Take `C[C@@H]1CN(CC(=O)N2CC(C)(C)c3ncc(Cc4ccc(F)cc4F)cc32)[C@@H](CN2CCOC2=O)CN1` [Example 200, 3-{[(2R,5R)-1-(2-{6-[(2,4-Difluorophenyl)methyl]-3,3-dimethyl-1H,2H,3H-pyrrolo[3,2-b]pyridin-1-yl}-2-oxoethyl)-5-methylpiperazin-2-yl]methyl}-1,3-oxazolidin-2-one dihydrochloride]: the inhibition at […] in assay [3] (setting [6]) was found to be 96%. For the same compound, the IC50 in assay [4] is 0.074 µM. Moreover, in assay [2] (setting [5]), the EC50 was 0.0088 µM.

As for `Cc1cnn(C[C@H]2CN[C@H](C)CN2CC(=O)N2CC3(Cc4ccccc4C3)c3ccc(C#N)cc32)c1` [Example 161, 1′-{2-[(2R,5R)-5-Methyl-2-[(4-methyl-1H-pyrazol-1-yl)methyl]piperazin-1-yl]acetyl}-1,1′,2′,3-tetrahydrospiro[indene-2,3′-indole]-6′-carbonitrile], the concentration for half-maximal inhibition (IC50) was < 1 µM in assay [3], 0.11 µM in assay [3] (setting [9]) and 0.06 µM in assay [4]. For the same compound, the EC50 in assay [2] (setting [8]) came to 1.7 µM.

As for `C[C@@H]1CN(CC(=O)N2CC(C)(C)c3cnc(Cc4ccc(F)cc4F)cc32)[C@@H](C(=O)N(C)C)CN1` [Example 164, (2R,5R)-1-(2-{6-[(2,4-Difluorophenyl)methyl]-3,3-dimethyl-1H,2H,3H-pyrrolo[3,2-c]pyridin-1-yl}-2-oxoethyl)-N,N,5-trimethylpiperazine-2-carboxamide dihydrochloride], in assay [3] (setting [6]), the inhibition at […] turned out to be 86%. Besides, the IC50 in assay [4] stood at 0.12 µM. Further, in assay [2] (setting [5]), the EC50 was 0.045 µM.

With `C[C@@H]1CN(CC(=O)N2CCc3cc(=O)n(Cc4ccccc4)cc32)CCN1.Cl` [Example 39, 6-Benzyl-1-[2-((R)-3-methyl-piperazin-1-yl)-acetyl]-1,2,3,6-tetrahydro-pyrrolo[2,3-c]pyridin-5-one hydrochloride salt], the inhibition at 1 µM in assay [3] (3 h, Probe A, @ 1 μM, read-out: IC50 or PI cIAP1: PI) was determined as 46%. In addition, the inhibition at 3 µM in assay [4] (1 h, @ 3 μM, read-out: IC50 or PI Xiap: PI) amounted to 55%. Moreover, the “EVSA-T prolif: % inhibition” value in assay [2] (concentration not printed (cell truncated)) is −15% at.

`COC[C@H]1CN[C@H](C)CN1CC(=O)N1CC(C)(C)c2cnc(C3=CCCCC3)cc21` [Example 106, 1-[6-(Cyclohex-1-en-1-yl)-3,3-dimethyl-1H,2H,3H-pyrrolo[3,2-c]pyridin-1-yl]-2-[(2R,5R)-2-(methoxymethyl)-5-methylpiperazin-1-yl]ethan-1-one, hydrochloride salt]: the concentration for half-maximal inhibition (IC50) in assay [3] (setting [9]) worked out at 0.023 µM; in assay [4], 0.11 µM. Further, in assay [2] (setting [8]), the 50% effective concentration (EC50) was 0.44 µM.
